The record followed here is article PMC11080019, “Synthesis and Biological Profiling of Quinolino-Fused 7-Deazapurine Nucleosides” (ACS Omega, 2024).

The structures appear in SMILES notation. Counter-ions that a name gives are not always drawn.

This assay concerns the target T1, T7 RNA polymerase (Escherichia phage T7, UniProt P00573).
T1 construct: purchased New England Biolabs
Nature of the assay: In vitro transcription (IVT) with T7 RNA polymerase, 35DNA_A7 template. To be noted: 7.5 mM NTPs, 37 °C, 16 h, 35-mer RNA with seven modifications. The format is biochemical. The procedure:
A^QTP was then used as a substrate for the T7 RNA polymerase in the in vitro transcription (IVT) experiments.[30] We used 35DNA_A7 DNA template encoding for 35-mer RNA containing seven A^Q modifications (Table 4). We used the T7 High Yield RNA Synthesis Kit with a high concentration of NTPs (7.5 mM each) but without any further additives. The reaction time at 37 °C was 16 h. The positive control experiment was performed with all four natural NTPs giving nonmodified transcript 35RNA_A7 (Figure 2, lane 2). The negative control contained only the natural CTP, GTP, and UTP in the absence of ATP (Figure 2, lane 3). The real IVT experiment was performed with A^QTP and three natural NTPs (Figure 2, lane 4). The transcription products were visualized by denaturing 20% denaturing PAGE (Figure 2) and characterized by LC–MS (see Figures S1 and S2 in the SI). […]
Aliquots of the first three reactions (50 ng) were separated by denaturating PAGE (20%) with urea at 23 mV for 1 h and visualized by fluorescence imaging.
Aliquots of the positive control (35RNA_A7) and the modified RNA (35RNA_A^Q7) were analyzed by UPLC-ESI-MS confirming the full transcription without any misincorporation (see Figures S1 and S2 in Supporting Information).

T1 sequence (P00573 whole entry): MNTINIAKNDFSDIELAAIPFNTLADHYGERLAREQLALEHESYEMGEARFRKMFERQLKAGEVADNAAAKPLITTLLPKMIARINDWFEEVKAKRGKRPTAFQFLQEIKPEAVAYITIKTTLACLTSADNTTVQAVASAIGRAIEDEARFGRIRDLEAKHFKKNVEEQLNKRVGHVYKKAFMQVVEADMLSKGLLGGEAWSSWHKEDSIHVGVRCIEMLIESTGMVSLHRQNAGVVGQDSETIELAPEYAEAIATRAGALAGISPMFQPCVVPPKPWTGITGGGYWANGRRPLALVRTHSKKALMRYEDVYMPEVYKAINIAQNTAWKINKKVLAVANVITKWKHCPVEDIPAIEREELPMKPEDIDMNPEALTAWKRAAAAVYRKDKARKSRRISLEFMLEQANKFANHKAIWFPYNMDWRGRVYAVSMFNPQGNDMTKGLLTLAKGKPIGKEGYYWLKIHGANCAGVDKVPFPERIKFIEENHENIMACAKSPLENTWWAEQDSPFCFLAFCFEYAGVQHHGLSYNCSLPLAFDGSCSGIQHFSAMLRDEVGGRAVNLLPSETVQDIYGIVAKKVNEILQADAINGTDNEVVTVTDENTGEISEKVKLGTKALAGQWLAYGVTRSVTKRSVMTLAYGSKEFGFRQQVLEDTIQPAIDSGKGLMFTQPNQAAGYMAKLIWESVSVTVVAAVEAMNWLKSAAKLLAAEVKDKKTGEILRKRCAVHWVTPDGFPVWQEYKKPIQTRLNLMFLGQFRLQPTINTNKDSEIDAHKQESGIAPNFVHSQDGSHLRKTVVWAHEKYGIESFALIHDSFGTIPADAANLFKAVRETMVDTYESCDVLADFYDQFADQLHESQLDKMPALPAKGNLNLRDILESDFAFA

Regarding `Nc1ncnc2c1c1c3cccnc3ccc1n2[C@@H]1O[C@H](COP(=O)(O)OP(=O)(O)OP(=O)(O)O)[C@@H](O)[C@H]1O` [A^QTP, 11-Amino-7-(β-D-ribofuranosyl)pyrimido[5′,4′:4,5]pyrrolo[3,2-f]quinoline 5′-O-Triphosphate Bistriethylammonium Salt], the “substrate activity for T7 RNA polymerase in in vitro transcription (in words)” value was “moderately efficient substrate”.
